Experimental data: patent US6218384A, “3-Oxo-pyrido(1,2-a)benzimidazole-4-carboxyl and 4-oxo-azepino(1,2-a)benzimidazole-5-carboxyl derivatives useful in treating central nervous system disorders” (Ortho-McNeil Pharmaceutical, Inc., priority 1997, dated 2001)
Where two headings read alike, the source gives them in different places.

Legend:
[1] = Suppression of anxiety (punished licking, conflict test) in the adult male rat; format: in vivo, male rats
Experimental: The anxiolytic activity of selected compounds of the invention was assessed by determining their ability to release (disinhibit) behavior that had been suppressed by punishment (Vogel, J. R. et al. Psychopharmacology 1971, 21, 1). Male rats were deprived of water for 48 hours and were deprived of food for 24 hours prior to testing. After the first 24 hours of water deprivation, they were placed in the conflict chamber for a training period; wherein, they were allowed 200 unpunished licks from a bottle containing tap water. The experiment was run the next day. At the expected time of peak activity, the animals were placed in the chamber and allowed access to tap water. […] Their first lick initiates a 3-min test session. Subsequently,every 20th lick was punished by a 0.2-s shock delivered via the stainless-steel drinking-tube. Vehicle-treated control animals generally were willing to accept a median number of 3 to 8 shocks per test session. […] The Wilcoxon rank-sum test (Mann-WhitneyU-test) was used to test for an increase (p<0.05, 1-tailed) in the median number of shocks in drug-treated groups, compared to a concurrently run vehicle-treated group. The biological assay is considered to be valid if the effects of a known anxiolytic (positive control) are detected, within the same experiment. A compound was considered active if there is a significant difference in the median number of shocks tolerated between the drug-treated group and the control group. The MED was defined as the minimum dose of the drug-treatment as analyzed using the Wilcoxon rank-sum test (SAS; Statistical Analysis System, version 5.16). If the MED value is greater than 10, an active dose of the compound being tested had not been determined.

[2] = target: benzodiazepine site of the GABA-A receptor; test: Benzodiazepine Receptor Binding Assay (inhibition of 3H-flunitrazepam binding); details: ca. 3 nM 3H-flunitrazepam
[3] = Suppression of metrazol-induced convulsions; format: in vivo, male CD1 mice; details: mice; for ED50: Mus musculus, 0.5 h; for Metrazol (ip) ED50: 30 min
Experimental: Selected compounds of the invention were tested for their ability to reduce metrazol-induced convulsions in mice (Swinyard, E. A. J. Am. Pharm Assoc. 1949, 38, 201). Male CD1 mice, were fasted at least 16 hours, were divided into equal groups and test compounds or vehicle were administered parenterally. Water was not withheld except during the period of observations. At the time of suspected peak activity, anti-pentylenetetrazol (anti-metrazol) activity was evaluated by the subcutaneous administration of the CD90 dose of metrazol (the dose of metrazol was determined from the dose-response curve producing clonic convulsions in 90% of animals that received the corresponding vehicle for this experiment). Metrazol was dissolved in 0.9% sodium chloride solution, and its dose volume was 10 ml/kg. Animals were housed individually for observation of clonic convulsions, tonic convulsions and death for a period of 30 min. Test compounds that blocked the clonic seizure component of the convulsion in at least 50% of the animals were considered active. The biological assay was considered to be valid if the effects of a known anticonvulsant (positive control) were detected, within the same experiment. Activity was reported as percent reduction of clonic convulsions from the vehicle group. The ED50 values of active compounds were calculated by the method of probits (Finney, D. J. 1971. Probit Analysis. London: Cambridge University Press) and are listed in Tables 1 to 5.

[4] = Table 3, minimum effective dose, read-out: Conflict MED
[5] = Table 3, parenteral, clonic convulsions, read-out: Antimetrazol ED50
[6] = Table 1, ip, minimum effective dose, >10 = active dose not determined, read-out: Conflict (ip) MED
[7] = Table 1, 25° C., 10-20 min, >10,000 = not active
[8] = Table 1, ip, clonic convulsions after sc CD90 metrazol, >30 = active dose not determined, read-out: Metrazol (ip) ED50
[9] = Table 4, minimum effective dose, read-out: Conflict MED
[10] = Table 4, parenteral, clonic convulsions, read-out: Antimetrazol ED50
[11] = Table 1, ip, minimum effective dose, >10 = active dose not determined
[12] = Table 1, ip, clonic convulsions after sc CD90 metrazol, >30 = active dose not determined
[13] = Table 5, minimum effective dose, read-out: Conflict MED
[14] = Table 5, parenteral, clonic convulsions, read-out: Antimetrazol ED50

Compound	minimal effective dose [1, 6] [mg/kg]	IC50 [2, 7] [nM]	ED50 [3, 8] [mg/kg]	other results
CCCN1C2=C(C(=O)Nc3ccc(F)cc3F)C(=O)CCN2c2ccccc21 [compound 131]	–	–	–	minimal effective dose [1, 4]: < 1 mg/kg; IC50 ([2]; Table 3): 2.6 nM; ED50 [3, 5]: 0.3 mg/kg
CCN(CC)c1ccc(NC(=O)C2=C3Nc4ccccc4N3CCC2=O)cc1 [compound 71]	> 10	1800	3	–
COc1ccc2c(c1)NC1=C(C(=O)Nc3ccccc3)C(=O)CCN12 [compound 12]	> 10	40	3	–
O=C(Nc1c(F)cccc1F)c1c(=O)ccn2c1[nH]c1ccccc12 [compound 141]	–	–	–	minimal effective dose [1, 9]: 0.3 mg/kg; IC50 ([2]; Table 4): < 1 nM; ED50 [3, 10]: < 0.1 mg/kg
CC1CN2C(=C(C(=O)Nc3ccccc3)C1=O)N(C)c1ccccc12 (stereo not drawn) [compound 134]	–	–	–	minimal effective dose [1, 4]: > 10 mg/kg; IC50 ([2]; Table 3): 67 nM; ED50 [3, 5]: 3 mg/kg
N-(2,6-Difluorophenyl)-3-hydroxypyrido(1,2-a)benzimidazole-4-carboxamide [CP 141]	–	140	–	Conflict (ip) MED [1, 11]: 10 mg/kg; Metrazol (ip) ED50 [3, 12]: 10 mg/kg
O=C1CCN2C(=C1C(=O)Nc1c(Cl)cccc1Cl)Nc1ccccc12 [compound 14]	> 10	320	30	–
O=C1CCN2C(=C1C(=O)Nc1c(F)cc(F)cc1F)Nc1cc(F)ccc12 [compound 107]	0.3	3	1	–
Nc1ccc(NC(=O)C2=C3Nc4ccccc4N3CCC2=O)cc1 [compound 18]	> 10	13000	3	–
CN1C2=C(C(=O)Nc3ccccc3F)C(=O)CCN2c2ccccc21 [compound 122]	–	–	–	minimal effective dose [1, 4]: 0.03 mg/kg; IC50 ([2]; Table 3): < 1 nM; ED50 [3, 5]: 0.03 mg/kg
CCCN1C2=C(C(=O)Nc3ccccc3)C(=O)CCN2c2ccccc21 [compound 136]	–	–	–	minimal effective dose [1, 4]: 10 mg/kg; IC50 ([2]; Table 3): 2.5 nM; ED50 [3, 5]: 1 mg/kg
O=C1CCN2C(=C1C(=O)NC1CCC1)Nc1ccccc12 [compound 83]	10	30	> 30	–
O=C1CCN2C(=C1C(=O)Nc1cccc(C(F)(F)F)c1)Nc1ccccc12 [compound 15]	> 10	300	> 10	–
CCN1C2=C(C(=O)Nc3ccccc3)C(=O)CCN2c2ccccc21 [compound 121]	–	–	–	minimal effective dose [1, 4]: < 1 mg/kg; IC50 ([2]; Table 3): < 0.1 nM; ED50 [3, 5]: < 1 mg/kg
CCN1C2=C(C(=O)Nc3ccncc3)C(=O)CCN2c2ccccc21 [compound 133]	–	–	–	minimal effective dose [1, 4]: 3 mg/kg; IC50 ([2]; Table 3): 80 nM; ED50 [3, 5]: 3 mg/kg
O=C1CCCN2C(=C1C(=O)Nc1ccccc1F)N(Cc1ccccc1)c1ccccc12 [compound 148]	–	–	–	minimal effective dose [1, 13]: > 10 mg/kg; IC50 ([2]; Table 5): 150 nM; ED50 [3, 14]: > 10 mg/kg
O=C1CCN2C(=C1C(=O)Nc1ncncn1)Nc1ccccc12 [compound 53]	> 10	110	> 10	–
Cc1nnc(NC(=O)C2=C3Nc4ccccc4N3CCC2=O)s1 [compound 64]	> 10	1100	> 10	–
Cc1cc(N(C)C)ccc1NC(=O)C1=C2Nc3ccccc3N2CCC1=O [compound 85]	> 10	4000	10	–
N-(2-Fluorophenyl)-6-methyl-4-oxo-1,2,3,4-tetrahydro-6H-azepino(1,2-a)benzimidazol-5-carboxamide [CP 147]	–	51	–	Conflict (ip) MED [1, 11]: 10 mg/kg; Metrazol (ip) ED50 [3, 12]: 5 mg/kg
Phenyl-1,2-dihydro-3-hydroxypyrido(1,2-a)benzimidazole-4-carboxthiolate [CP 119]	–	43	–	Conflict (ip) MED [1, 11]: 10 mg/kg; Metrazol (ip) ED50 [3, 12]: 30 mg/kg
Cc1cccc2c1NC1=C(C(=O)Nc3ccncc3)C(=O)CCN12 [compound 88]	> 10	390	10	–

Compound	minimal effective dose [1, 6] [mg/kg]	IC50 [2, 7] [nM]	ED50 [3, 8] [mg/kg]	other results
CNC(=O)C1=C2Nc3ccccc3N2CCC1=O [compound 102]	> 10	400	> 10	–
O=C1CCN2C(=C1C(=O)Nc1cccc3ccoc13)Nc1ccccc12 [compound 51]	10	120	> 10	–
1,2-Dihydro-3-hydroxy-N-phenylpyrido(1,2-a)benzimidazole-4-thiocarboxamide [CP 117]	–	46	–	Conflict (ip) MED [1, 11]: 10 mg/kg; Metrazol (ip) ED50 [3, 12]: > 30 mg/kg
O=C1CCN2C(=C1C(=O)Nc1ccccn1)Nc1ccccc12 [compound 22]	10	59	10	–
O=C1CCCN2C(=C1C(=O)Nc1ccccc1F)Nc1ccccc12 [compound 146]	–	–	–	minimal effective dose [1, 13]: 10 mg/kg; IC50 ([2]; Table 5): 3.1 nM; ED50 [3, 14]: 1 to 10 mg/kg
Cn1c2ccccc2n2ccc(=O)c(C(=O)Nc3ccccc3)c12 [compound 142]	–	–	–	minimal effective dose [1, 9]: < 1 mg/kg; IC50 ([2]; Table 4): 45 nM; ED50 [3, 10]: < 1 mg/kg
Cc1cc(NC(=O)C2=C3Nc4ccccc4N3CCC2=O)ccn1 [compound 100]	> 10	820	> 10	–
CN1C2=C(C(=O)Nc3ccccc3F)C(=O)CCCN2c2ccccc21 [compound 147]	–	–	–	minimal effective dose [1, 13]: > 10 mg/kg; IC50 ([2]; Table 5): 22 nM; ED50 [3, 14]: > 10 mg/kg
O=C1CCN2C(=C1C(=O)Nc1c(F)cc(F)cc1Br)Nc1ccccc12 [compound 103]	> 10	1200	> 10	–
O=C1CCN2C(=C1C(=O)Nc1ncc[nH]1)Nc1ccccc12 [compound 99]	> 10	185	> 30	–
CN1C2=C(C(=O)Nc3c(F)cc(F)cc3F)C(=O)CCCN2c2ccccc21 [compound 157]	–	–	–	minimal effective dose [1, 13]: > 10 mg/kg; IC50 ([2]; Table 5): 53 nM; ED50 [3, 14]: > 10 mg/kg
Phenyl-1,2-dihydro-3-hydroxypyrido(1,2-a)benzimidazole-4-carboxylate [CP 118]	–	41	–	Conflict (ip) MED [1, 11]: 10 mg/kg; Metrazol (ip) ED50 [3, 12]: 3 mg/kg
O=C1CCN2C(=C1C(=O)Nc1cnccn1)Nc1ccccc12 [compound 63]	> 10	360	> 10	–
N#Cc1ccc(NC(=O)C2=C3Nc4ccccc4N3CCC2=O)cc1 [compound 54]	< 10	13000	> 10	–
O=C1CCN2C(=C1C(=O)NC1CC1)Nc1ccccc12 [compound 43]	> 10	16	> 10	–
CN(C)c1ccc(NC(=O)C2=C3N(CCCC2=O)c2ccccc2N3Cc2ccccc2)cc1 [compound 151]	–	–	–	minimal effective dose [1, 13]: > 10 mg/kg; IC50 ([2]; Table 5): 12400 nM; ED50 [3, 14]: > 10 mg/kg
CCCN1C2=C(C(=O)Nc3c(F)cc(F)cc3F)C(=O)CCN2c2ccccc21 [compound 137]	–	–	–	minimal effective dose [1, 4]: > 10 mg/kg; IC50 ([2]; Table 3): < 100 nM; ED50 [3, 5]: 1 mg/kg
O=C1CCN2C(=C1C(=O)NCCc1ccccc1)Nc1ccccc12 [compound 2]	> 10	280	10 to 30	–
O=C1CCN2C(=C1C(=O)Nc1ccccc1Cl)Nc1ccccc12 [compound 25]	10	12	1	–
O=C1CCN2C(=C1C(=O)Nc1ccncn1)Nc1ccccc12 [compound 39]	10	480	> 10	–
O=C1CCN2C(=C1C(=O)NCc1ccncc1)Nc1ccccc12 [compound 59]	> 10	65	> 10	–
